{"source": "patent US20140142170A1", "about": "“COMPOSITION AND METHOD FOR INFLUENCING ENERGY METABOLISM AND TREATING METABOLIC AND OTHER DISORDERS” (SIRTUIN VALLEY OY, priority 2010, published 2014)", "key": {"AMPK": {"test_system": "AMPK", "test": "total AMPK expression, immunoblot in 3T3L1 preadipocytes", "type": "cell-based", "conditions": "100 μM, 24 hours", "method": "(§1) 3T3L1 cells were purchased from American Type Culture Collection (Manassas, Va., USA) and cultured in DMEM media containing 4.5 g/l glucose supplemented with 10% fetal bovine serum (Hyclone), 2 mM L-glutamine (Gibco), 100 U/ml penicillin, and 100 μg/ml streptomycin (Gibco). The cells were cultured at 37° C. in a humidified atmosphere with 10% CO2.\nThe 3T3L1 cells were plated at 6×10^4 cells/well in 12 well plates and incubated at 37° C. in a humidified atmosphere with 10% CO2. […] The media was removed, cells were washed with PBS, and cell lysates were collected on ice. Proteins were extracted using RIPA buffer along with protease and phosphatase inhibitors. Lysates were centrifuged for 30 min at high speed; supernatant was collected and stored at […] until further analysis. The vehicle controls were 3T3 L1 cells without any treatment with drugs or other compounds. The drugs or compounds that were used in all the experiments were dissolved or diluted in dimethylsulfoxide (DMSO) as diluent. […]\nProtein concentrations were measured using a BCA (bicinchoninic acid) protein assay kit (Cat.#23225; Pierce, Rockford, Ill.). […]\nThe membranes were developed using chemiluminescence (ECL plus, GE Health Care), and images were captured in an Image Quant RT-ECL machine (version 1.0.1; GE Health Care). Densitometry and quantification of the bands were done by applying Quantity One software (Bio-Rad). […]"}, "phospho-ACC": {"test_system": "phospho-ACC", "test": "phospho-ACC expression, immunoblot in 3T3 L1 preadipocytes", "type": "cell-based", "conditions": "24 hours; for phosphorylated ACC expression vs control: 3T3L1 preadipocytes, 100 μM"}, "SIRT1": {"test_system": "SIRT1", "test": "SIRT1 protein expression, immunoblot and densitometry in 3T3 L1 preadipocytes", "type": "cell-based", "conditions": "24 hours; for SIRT1 protein expression compared to control: 3T3 L1 cells, 60 μM each compound; for SIRT1 protein expression vs control: 3T3L1 preadipocytes, 100 μM", "method": "as §1\nThe 3T3L1 cells were plated at 6×10^4 cells/well in 12 well plates and incubated at 37° C. in a humidified atmosphere with 10% CO2. The media was removed after 24 hours and the cells were treated with 60 μM GR24 individually and in combination with […] and 60 μM pinosylvin, and incubated for 24 hours at 37° C. in a humidified atmosphere with 10% CO2. The media was removed, cells were washed with PBS, and cell lysates were collected on ice. Proteins were extracted using RIPA buffer along with protease and phosphatase inhibitors. Lysates were centrifuged for 30 min at high speed; supernatant was collected and stored at […] until further analysis. The vehicle controls were 3T3 L1 cells without any treatment with drugs or other compounds. The drugs or compounds that were used in all the experiments were dissolved or diluted in dimethylsulfoxide (DMSO) as diluent. In all experiments, the controls were treated with the same volume of DMSO as was used to dissolve drugs or compounds in compound-treated cells to show and ensure that the actual change in protein expression in different treatments was due solely to the compounds or combination of compounds and not to the DMSO.\nProtein concentrations were measured using a BCA (bicinchoninic acid) protein assay kit (Cat.#23225; Pierce, Rockford, Ill.). Twenty (20) μg/lane of total cellular protein samples containing NuPAGE LDS sample buffer (Invitrogen) and reducing agent were loaded into 4-12% NuPAGE Bis-Tris gels (Invitrogen), subjected to gel electrophoresis, and transferred to polyvinylidene fluoride membranes (Amersham). For SIRT1 proteins, membranes were blocked in 0.05% TBS-Tween with 3% milk for 1 hour, incubated overnight at +4° C. with SIRT1 primary antibodies (Cat.#07-131, Millipore). For phospho-AMPKα and AMPKα proteins, blocking was done for 1 hour in 0.1% TBS-Tween with 5% milk. The membranes were incubated overnight at +4° C. with phospho-AMPKα (Cat. #2535, Cell Signaling) and AMPKα (Cat.#2532, Cell Signaling) primary antibodies. Horseradish peroxidase-conjugated anti-rabbit antibodies (Cat. #NA934V GE Health Care, Amersham, U.K) were used as secondary antibodies. For α-tubulin (loading control), membranes were blocked in 0.05% PBS-Tween with 3% milk for 1 hour, incubated with α-tubulin (Cat.# B-5-1-2, Sigma) primary antibodies for 1 hour at room temperature and horseradish peroxidase-conjugated anti-mouse (Cat. # NA 931V GE Health Care, Amersham, U.K.) IgG antibodies were used as secondary antibodies.\nThe membranes were developed using chemiluminescence (ECL plus, GE Health Care), and images were captured in an Image Quant RT-ECL machine (version 1.0.1; GE Health Care). Densitometry and quantification of the bands were done by applying Quantity One software (Bio-Rad). The expression levels of the proteins were normalized to α-tubulin protein levels.\n3T3L1 cells were purchased from American Type Culture Collection (Manassas, Va., USA) and cultured in DMEM media containing 4.5 g/l glucose supplemented with 10% fetal bovine serum (Hyclone), 2 mM L-glutamine (Gibco) and 100 U/ml penicillin, 100 μg/ml streptomycin (Gibco). The cells were cultured at 37° C. in a humidified atmosphere with 10% CO2. 3T3L1 preadipocytes were plated at 1×10^5 cells/well in 6 well plates and incubated at 37° C. in a humidified atmosphere with 10% CO2. […] In all experiments, the controls were treated with the same volume of DMSO as was used to dissolve compounds in compound-treated cells to show and ensure that the actual change in protein expression in different treatments was only due to the compounds DMSO. […]"}, "fungal cell": {"test_system": "fungal cell", "conditions": "cited from earlier work"}, "[1]": {"test_system": "mitochondria of 3T3L1 preadipocytes", "test": "Mitochondrial staining with MitoTracker green, confocal microscopy", "type": "cell-based", "conditions": "60 μM, 24 hours", "method": "The 3T3L1 preadipocytes were plated onto Ibidi u-slide 8 well plates at 1.6×10^4 cells/well and incubated at 37° C. in a humidified atmosphere with 10% CO2. The media was removed after 24 hours, the cells were treated with 60 μM GR24 and incubated for 24 hours at 37° C. in a humidified atmosphere with 10% CO2. After 24 hours of treatment, staining of mitochondria was done using 200 nM MitoTracker Mitochondrion-Selective Probes (Green FM probes Cat.#M7514, Invitrogen) according to the manufacturer's instructions. The cells were observed using a confocal microscope and images were taken at 40× oil immersion.\nPreadipocytes were treated with DMSO (Vehicle control) (FIG. 5A), 60 μM resveratrol (FIG. 5B) or 60 μM strigolactone analog GR24 (FIG. 5C) for 24 hours. Next, preadipocytes were stained with MitoTracker green and observed under a confocal microscope at 40× oil immersion. […] The white oval shaped structures are nucleus and the white thread-like structures around the nucleus in the cytoplasm are mitochondria. When compared to the control, there was an increase in mitochondrial biogenesis represented by elongated mitochondria, and an increase in mitochondrial activation represented by the intensity of fluorescence, in cells treated with resveratrol and GR24. […] Thus, GR24 enhances both biogenesis and activity of mitochondria, which is necessary to generate ATP."}}, "note": "Several values for one entry are separate records, joined by “and”; a condition that tells them apart may be missing. Equal entries are not always repeated. Entries after “also recorded” stand apart in the source; their conditions may differ.", "data": [{"smiles": "CC1=CC(O/C=C2/C(=O)O[C@@H]3c4ccccc4C[C@H]23)OC1=O", "note": "(stereo partly shown) [GR24]", "values": [{"measurement": "total AMPK expression vs control", "setting": "AMPK", "value": "down-regulated"}, {"measurement": "phospho-ACC expression (phosphorylation of ACC) compared to control", "setting": "phospho-ACC; 3T3 L1 preadipocytes, 60 μM", "value": "no change"}, {"measurement": "phosphorylated ACC expression vs control", "setting": "phospho-ACC", "value": "down-regulated"}, {"measurement": "phosphorylated ACC expression vs control", "setting": "phospho-ACC; listed as GR 24", "value": "decrease"}, {"measurement": "SIRT1 protein expression compared to control", "setting": "SIRT1", "value": "significant increase; also recorded: significantly (*P<0.05) increased"}, {"measurement": "SIRT1 protein expression compared to control", "setting": "SIRT1; listed as GR 24", "value": "significant increase; also recorded: significantly (*P<0.05) increased"}, {"measurement": "SIRT1 expression compared with resveratrol", "setting": "SIRT1; 3T3 L1 preadipocytes, 60 μM", "value": "greater than did resveratrol"}, {"measurement": "SIRT1 protein expression compared to control (100%)", "setting": "SIRT1; 3T3 L1 preadipocytes, 60 μM, control = 100%", "value": "168% and 164% and 198% and 220% and 149%"}, {"measurement": "SIRT1 protein expression vs control", "setting": "SIRT1", "value": "significantly increased"}, {"measurement": "SIRT1 protein expression vs control", "setting": "SIRT1; listed as GR 24", "value": "increase"}, {"measurement": "ATP content of the fungal cell", "setting": "fungal cell", "value": "rapid increase"}, {"measurement": "NADH concentration", "setting": "fungal cell", "value": "rapid increase"}, {"measurement": "NADH dehydrogenase activity", "setting": "fungal cell", "value": "rapid increase"}, {"measurement": "increase in intensity of staining, visibility", "setting": "[1]", "value": "clearly visible only in the GR24 treated cells"}, {"measurement": "mitochondrial activation (intensity of fluorescence) compared to control", "setting": "[1]", "value": "increase"}, {"measurement": "mitochondrial biogenesis (elongated mitochondria) compared to control", "setting": "[1]", "value": "increase"}]}]}
